{
  "source": "patent US10392398B2",
  "about": "“Inhibitors of Late SV40 Factor (LSF) as cancer chemotherapeutics” (TRUSTEES OF BOSTON UNIVERSITY, priority 2010, dated 2019)",
  "key": {"[1]": {"target": "T1, LSF (Homo sapiens, UniProt Q12800)", "T1 sequence (Q12800 1-502)": "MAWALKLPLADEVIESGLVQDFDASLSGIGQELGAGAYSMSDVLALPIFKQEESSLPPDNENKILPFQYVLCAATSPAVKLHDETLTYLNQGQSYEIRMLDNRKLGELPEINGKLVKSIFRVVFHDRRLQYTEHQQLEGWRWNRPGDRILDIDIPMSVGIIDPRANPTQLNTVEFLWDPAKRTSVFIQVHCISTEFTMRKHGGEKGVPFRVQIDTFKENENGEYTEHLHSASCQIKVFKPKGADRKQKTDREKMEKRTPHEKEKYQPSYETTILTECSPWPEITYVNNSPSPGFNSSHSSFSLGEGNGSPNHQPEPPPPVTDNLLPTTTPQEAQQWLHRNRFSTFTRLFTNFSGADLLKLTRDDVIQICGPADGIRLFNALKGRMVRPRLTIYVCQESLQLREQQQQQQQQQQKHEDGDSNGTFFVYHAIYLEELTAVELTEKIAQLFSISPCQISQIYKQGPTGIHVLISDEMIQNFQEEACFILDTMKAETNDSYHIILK", "assay": "Electrophoretic mobility shift assay (EMSA) of LSF DNA-binding", "format": "biochemical", "conditions": "in vitro translated LSF", "experimental": "LSF was translated in vitro as previously described^16 for use in EMSAs. Protein was preincubated with inhibitor or DMSO and then incubated with 0.5 μg poly d(I-C) for 15 min at 4° C. in 40 mM KCl, 15 mM HEPES pH 7.9, 1 mM EDTA, 0.5 mM DTT, 5% glycerol. Finally, radiolabelled double-stranded DNA ([…]—SEQ ID NO: 5- and its complement) were added for a 30-min incubation at 30° C. Results were visualized using a PhosphorImager and quantified using ImageQuant software."}, "[2]": {"target": "T1, LSF", "assay": "Chromatin immunoprecipitation of myc-LSF-HA binding to the endogenous POLA1 promoter", "format": "cell-based", "design": "expressed in transfected cells", "conditions": "human cell line", "experimental": "USF-dependent reporter assays were performed with FQI1 only. Averages with standard deviation (SD) derive from 3-4 independent experiments. […] “−LSF”: translation extract with no programmed LSF. […] Myc-LSF-HA expression was induced with the small molecule inducer RSL1. In induced cells, FQI1 or vehicle was added for the final 12 h of myc-LSF-HA induction."}, "[3]": {"test_system": "LBP1a/b", "assay": "Cellular Thermal Shift Assay (CETSA), LBP1a/b", "format": "binding", "conditions": "QGY-7703 lysate, 500 μM", "experimental": "(§1) Drug-target engagement was assessed using CETSA as described by Molina et al. (Monitoring Drug-Target Engagement in Cells and Tissues Using Cellular Thermal Shift Assay. Science (2013) 341, 84-87). QGY-7703 cells were cultured at 37° C. in 5% CO2 in DMEM (Dulbecco's modification of Eagle's Medium; Corning) supplemented with 10% Fetal Bovine Serum (FBS; Invitrogen). Cells were seeded into 10 cm plates and allowed to reach 60-80% confluency. After trypsinization (0.05% Trypsin-EDTA, Invitrogen), cell pellet was washed twice with ice-cold 1×PBS (137 mM NaCl, 2.7 mM KCl, 10 mM Na2HPO4, 2 mM KH2PO4, pH 7.2). Cell pellet was lysed by addition of 200 μL freshly prepared ice-cold RIPA buffer (10 mM Tris-Cl pH 8.0, 1 mM EDTA, 0.5 mM EGTA, 1% Triton X-100, 0.1% sodium deoxycholate, 0.1% SDS, 140 mM NaCl) supplemented with 1 mM Pefabloc (Sigma-Aldrich), and flash frozen in liquid nitrogen and thawed for a total of three cycles. Cell lysate was centrifuged at 20,000×g for 20 minutes to clarify. Supernatant was either treated immediately or saved at −80° C. for future use. […]\n(§2) Immunoblots were quantified using Image J and graphed using GraphPad PRISM. Area-under-the-curve (AUC) for the quantified western blots were calculated with GraphPad PRISM and non-parametric t-test was calculated to determine statistical significance between the curves. […]"}, "[4]": {"target": "T2, GRHL1 (Homo sapiens, UniProt Q9NZI5)", "T2 construct": "endogenous in cells; host or cells: QGY-7703 cell lysate", "T2 sequence (Q9NZI5 1-618)": "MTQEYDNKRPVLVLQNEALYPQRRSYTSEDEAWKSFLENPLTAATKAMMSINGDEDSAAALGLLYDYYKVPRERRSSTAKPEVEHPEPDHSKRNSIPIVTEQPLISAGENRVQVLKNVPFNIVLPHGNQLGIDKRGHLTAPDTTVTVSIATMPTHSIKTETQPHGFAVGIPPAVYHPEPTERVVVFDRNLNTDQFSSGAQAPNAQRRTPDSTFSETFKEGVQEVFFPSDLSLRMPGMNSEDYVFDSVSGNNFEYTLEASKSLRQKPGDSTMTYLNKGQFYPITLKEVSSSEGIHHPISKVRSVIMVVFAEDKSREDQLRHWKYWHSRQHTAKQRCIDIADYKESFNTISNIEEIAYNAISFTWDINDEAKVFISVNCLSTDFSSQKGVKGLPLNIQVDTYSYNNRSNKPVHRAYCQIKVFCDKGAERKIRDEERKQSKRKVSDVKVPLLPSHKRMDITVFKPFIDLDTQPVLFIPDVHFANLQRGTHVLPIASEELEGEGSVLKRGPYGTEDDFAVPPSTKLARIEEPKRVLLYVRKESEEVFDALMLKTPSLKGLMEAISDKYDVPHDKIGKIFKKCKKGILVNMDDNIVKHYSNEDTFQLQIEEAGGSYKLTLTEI", "assay": "Cellular Thermal Shift Assay (CETSA), GRHL1", "format": "binding", "conditions": "QGY-7703 lysate, 500 μM", "experimental": "as §1, §2"}},
  "data": [
    {"compound": "CCOc1ccccc1C1CC(=O)Nc2cc3c(cc21)OCO3", "note": "(racemic) [FQI1, 8-(2-ethoxyphenyl)-7,8-dihydro-[1,3]dioxolo[4,5-g]quinolin-6(5H)-one]", "values": [
      {"measurement": "modulation of LSF DNA-binding in EMSA", "setting": "[1]", "result": "initial enhancement at low concentrations and inhibition at higher concentrations"},
      {"measurement": "binding of inducible HA-tagged LSF to the POLA1 promoter (ChIP)", "setting": "[2]", "result": "efficiently blocked"}
    ]},
    {"compound": "CCOc1cc(N(C)C)ccc1C1CC(=O)Nc2cc3c(cc21)OCO3", "note": "(stereo not shown) [FQI-34, 8-(4-(dimethylamino)-2-ethoxyphenyl)-7,8-dihydro-[1,3]dioxolo[4,5-g]quinolin-6(5H)-one]", "values": [
      {"measurement": "binding to LBP1a/b by CETSA", "setting": "[3]", "result": "directly binds"},
      {"measurement": "binding to GRHL1 by CETSA", "setting": "[4]", "result": "does not bind"}
    ]}
  ]
}
